29 compounds from patent US10829501B2 (BRISTOL-MYERS SQUIBB COMPANY, priority 2016, dated 2020) can be followed below.

pIC50: −log10 of the molar value. Counter-ions that a name gives are not always drawn. Where only a bound is given, the exact number is not on record here.

As usually defined, the pIC50 is −log10 of the IC50, conventionally taken in molar units.

Chain of ROCK2 (O75116 whole entry, species assumed): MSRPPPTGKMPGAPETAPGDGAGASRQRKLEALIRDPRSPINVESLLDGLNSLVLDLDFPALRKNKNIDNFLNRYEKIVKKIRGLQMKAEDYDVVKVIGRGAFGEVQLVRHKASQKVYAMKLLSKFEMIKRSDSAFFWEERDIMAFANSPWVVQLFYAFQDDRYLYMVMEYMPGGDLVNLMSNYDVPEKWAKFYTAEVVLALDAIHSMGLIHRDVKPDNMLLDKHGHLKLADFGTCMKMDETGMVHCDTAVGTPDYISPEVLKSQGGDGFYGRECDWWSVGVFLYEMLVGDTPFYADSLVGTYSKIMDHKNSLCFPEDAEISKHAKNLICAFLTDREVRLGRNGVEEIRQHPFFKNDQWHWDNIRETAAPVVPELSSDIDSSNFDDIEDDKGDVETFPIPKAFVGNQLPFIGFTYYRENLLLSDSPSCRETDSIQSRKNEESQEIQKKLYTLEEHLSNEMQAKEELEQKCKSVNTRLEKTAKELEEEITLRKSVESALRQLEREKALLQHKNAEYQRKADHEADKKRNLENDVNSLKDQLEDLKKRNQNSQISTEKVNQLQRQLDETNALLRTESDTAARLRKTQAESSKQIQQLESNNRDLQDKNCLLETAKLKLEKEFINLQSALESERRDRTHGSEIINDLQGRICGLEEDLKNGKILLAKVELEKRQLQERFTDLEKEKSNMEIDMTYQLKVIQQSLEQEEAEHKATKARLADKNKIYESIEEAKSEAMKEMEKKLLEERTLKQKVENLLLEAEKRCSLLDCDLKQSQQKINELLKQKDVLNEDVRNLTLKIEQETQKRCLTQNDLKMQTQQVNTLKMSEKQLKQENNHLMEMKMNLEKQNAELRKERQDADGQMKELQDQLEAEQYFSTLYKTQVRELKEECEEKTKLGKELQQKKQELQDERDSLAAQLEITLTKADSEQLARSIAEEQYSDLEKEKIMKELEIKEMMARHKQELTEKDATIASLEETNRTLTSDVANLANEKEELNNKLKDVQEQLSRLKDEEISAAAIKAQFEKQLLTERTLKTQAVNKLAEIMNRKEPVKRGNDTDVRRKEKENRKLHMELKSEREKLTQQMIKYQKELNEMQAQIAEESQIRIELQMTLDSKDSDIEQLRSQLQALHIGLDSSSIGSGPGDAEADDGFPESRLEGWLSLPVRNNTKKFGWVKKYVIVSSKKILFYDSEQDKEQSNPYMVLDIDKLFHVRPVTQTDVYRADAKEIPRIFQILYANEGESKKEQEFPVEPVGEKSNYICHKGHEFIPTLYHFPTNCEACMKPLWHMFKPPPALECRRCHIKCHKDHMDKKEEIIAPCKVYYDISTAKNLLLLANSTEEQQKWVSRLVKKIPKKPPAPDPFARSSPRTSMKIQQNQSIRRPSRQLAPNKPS

One assay concerns the target ROCK2 (Homo sapiens, UniProt O75116). The experiment in a line: ROCK2 kinase inhibition assay (LABCHIP 3000 Reader, FITC peptide substrate).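 Further: rho kinase reaction read by separating phosphorylated from unphosphorylated peptide on chip, with inhibition of kinase activity computed per concentration across a dose-response series.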
Settings: not given
`CC(C)(O)COc1ccc2c(C(=O)NC3CC4(C3)CC(Oc3cc(-c5cccc(F)c5)ccc3C(N)=O)C4)cnn2c1` (centres unmarked) [Example 242, N-(6-((4-carbamoyl-3′-fluoro-[1,1′-biphenyl]-3-yl)oxy)spiro[3.3]heptan-2-yl)-6-(2-hydroxy-2-methylpropoxy)pyrazolo[1,5-a]pyridine-3-carboxamide] showed a pIC50 of 7.30 to 8.30.

On to `NC(=O)c1ccccc1O[C@H]1CC2(C[C@H](NC(=O)c3cnn4cc(OCCN5CCCC5)ccc34)C2)C1` (stereo partly drawn) [Example 21, N-[(aR)-6-(2-carbamoylphenoxy)spiro[3.3]heptan-2-yl]-6-[2-(pyrrolidin-1-yl)ethoxy]pyrazolo[1,5-a]pyridine-3-carboxamide], for which the pIC50 was 7.30 to 8.30.

In turn, `NC(=O)c1ccccc1O[C@H]1CC2(C[C@H](NC(=O)c3cnc4cc(N5CCOCC5)ccn34)C2)C1` (stereo partly drawn) [Example 29, N-[(aR)-6-(2-carbamoylphenoxy)spiro [3.3]heptan-2-yl]-7-(morpholin-4-yl)imidazo[1,2-a]pyridine-3-carboxamide] had a pIC50 of 7.30 to 8.30.

For the compound `[2H]C([2H])([2H])n1cc(-c2cc(C(=O)N[C@H]3CC4(C3)C[C@H](Oc3ncccc3C(N)=O)C4)cc(S(C)(=O)=O)c2)cn1` (some centres unmarked) [Example 53, 2-{[(4s)-6-{3-methanesulfonyl-5-[1-(^2H3)methyl-1H-pyrazol-4-yl]benzamido}spiro[3.3]heptan-2-yl]oxy}pyridine-3-carboxamide], the pIC50 is 7.30 to 8.30.

Regarding `COCc1cccc(-c2ccc(C(N)=O)c(OC3CC4(CC(NC(=O)c5cnn6cc(OCC(C)(C)O)ccc56)C4)C3)c2)c1` (centres unmarked) [Example 245, N-(6-((4-carbamoyl-3′-(methoxymethyl)-[1,1′-biphenyl]-3-yl)oxy)spiro[3.3]heptan-2-yl)-6-(2-hydroxy-2-methylpropoxy)pyrazolo[1,5-a]pyridine-3-carboxamide], the pIC50 is 7.30 to 8.30.

Compound `COC(=O)c1cncc(-c2ccc(C(N)=O)c(OC3CC4(CC(NC(=O)c5cnn6cc(OCC(C)(C)O)ccc56)C4)C3)c2)c1` (centres unmarked) [Example 232, methyl 5-(4-carbamoyl-3-((6-(6-(2-hydroxy-2-methylpropoxy)pyrazolo[1,5-a]pyridine-3-carboxamido)spiro[3.3]heptan-2-yl)oxy)phenyl)nicotinate] showed a pIC50 of 7.30 to 8.30.

In the case of `NC(=O)c1cccnc1O[C@H]1CC2(C[C@H](NC(=O)c3cnn4cc(OCC[C@H]5COC(=O)N5)ccc34)C2)C1` (stereo partly drawn) [Example 126, N-((aR)-6-((3-carbamoylpyridin-2-yl)oxy)spiro[3.3]heptan-2-yl)-6-(2-((S)-2-oxoxazolidin-4-yl)ethoxy) pyrazolo[1,5-a]pyridine-3-carboxamdie, trifluoroacetate], the pIC50 is more than 8.30.

`NC(=O)c1cccnc1O[C@H]1CC2(C[C@H](NC(=O)c3ccn4ccnc4c3)C2)C1` (stereo partly drawn) [Example 71, N-((aR)-6-((3-carbamoylpyridin-2-yl)oxy)spiro[3.3]-heptan-2-yl)imidazo[1,2-a] pyridine-7-carboxamdie, trifluoroacetate] had a pIC50 of 5.60 to 6.60.

For `CC(C)(O)COc1ccc2c(C(=O)NC3CC4(C3)CC(Oc3cc(-c5ccc(C(N)=O)c(F)c5)ccc3C(N)=O)C4)cnn2c1` (centres unmarked) [Example 280, 3-fluoro-3′-((6-(6-(2-hydroxy-2-methylpropoxy)pyrazolo[1,5-a]pyridine-3-carboxamido)spiro[3.3]heptan-2-yl)oxy)-[1,1′-biphenyl]-4,4′-dicarboxamide], the pIC50 is 7.30 to 8.30.

In turn, `COc1ccc(-c2nc(C(=O)N[C@H]3CC4(C3)C[C@H](Oc3ncccc3C(N)=O)C4)cs2)cc1` (stereo partly drawn) [Example 136, N-((aR)-6-((3-carbamoylpyridin-2-yl)oxy)spiro[3.3]heptan-2-yl)-2-(4-methoxyphenyl) thiazole-4-carboxamide, trifluoroacetate] gave a pIC50 of 5.60 to 6.60.

`[H][C@]1(Oc2ncccc2C(N)=O)C[C@@]2(C[C@H](NC(=O)c3cc(OCCC(F)(F)F)cc(-c4cccc(S(C)(=O)=O)c4)c3)C2)C1` (some centres unmarked) [Example 58]: the pIC50 was 6.60 to 7.30.

For the compound `NC(=O)c1cccnc1O[C@H]1CC2(C[C@H](NC(=O)c3cnc4ccccc4c3)C2)C1` (stereo partly drawn) [Example 72, N-((aR)-6-((3-carbamoylpyridin-2-yl)oxy)spiro[3.3]-heptan-2-yl)quinoline-3-carboxamide, trifluoroacetate], the pIC50 was 7.30 to 8.30.

Consider `[H][C@]1(Oc2ncccc2C(N)=O)C[C@@]2(C[C@H](NC(=O)c3cccc(-c4cccc(S(C)(=O)=O)c4)c3)C2)C1` (some centres unmarked) [Example 55], for which the pIC50 was 6.60 to 7.30.

The compound `CC(C)(C(N)=O)n1nc(C(=O)N[C@H]2CC3(C2)C[C@H](Oc2ncccc2C(N)=O)C3)c2ccc(-c3cnn(C(F)F)c3)cc21` (stereo partly drawn) [Example 409, 1-(1-amino-2-methyl-1-oxopropan-2-yl)-N-((aR)-6-((3-carbamoylpyridin-2-yl)oxy)spiro[3.3]heptan-2-yl)-6-(1-(difluoromethyl)-1H-pyrazol-4-yl)-1H-indazole-3-carboxamide, TFA] showed a pIC50 of more than 8.30.

The compound `COc1cc(C(=O)NC2CC3(C2)CC(Oc2ccccc2C(N)=O)C3)ccc1-c1cn[nH]c1` (centres unmarked) [Example 5, N-(6-(2-carbamoylphenoxy)spiro[3.3]heptan-2-yl)-3-methoxy-4-(1H-pyrazol-4-yl)benzamide] gave a pIC50 of 6.60 to 7.30.

As for `NC(=O)c1cccnc1O[C@H]1CC2(C[C@H](NC(=O)c3cnc4cc(OCCN5CCCC5)ccn34)C2)C1` (stereo partly drawn) [Example 325, N-((aR)-6-((3-carbamoylpyridin-2-yl)oxy)spiro[3.3]heptan-2-yl)-7-(2-(pyrrolidin-1-yl)ethoxy)imidazo[1,2-a]pyridine-3-carboxamide], the pIC50 was 7.30 to 8.30.

Consider `N#Cc1cccc(-c2ncc(C(=O)NC3CC4(C3)CC(Oc3ncccc3C(N)=O)C4)s2)c1` [Example 420, N-((aR)-6-((3-carbamoylpyridin-2-yl)oxy)spiro[3.3]heptan-2-yl)-2-(3-cyanophenyl)thiazole-5-carboxamide, TFA], for which the pIC50 was 7.30 to 8.30.

For `NC(=O)c1cccnc1O[C@H]1CC2(C[C@H](NC(=O)c3cnn4cc(OCCn5ccnc5)ccc34)C2)C1` (stereo partly drawn) [Example 120, 6-(2-(1H-imidazol-1-yl)ethoxy)-N-((aR)-6-((3-carbamoylpyridin-2-yl)oxy)spiro[3.3]heptan-2-yl)pyrazolo[1,5-a]pyridine-3-carboxamdie, trifluoroacetate], the pIC50 is 7.30 to 8.30.

The compound `CC(C)(O)COc1ccc2c(C(=O)NC3CC4(C3)CC(Oc3c(F)cc(F)cc3C(N)=O)C4)cnn2c1C1CC1` (centres unmarked) [Example 269, N-(6-(2-carbamoyl-4,6-difluorophenoxy)spiro[3.3]heptan-2-yl)-7-cyclopropyl-6-(2-hydroxy-2-methylpropoxy)pyrazolo[1,5-a]pyridine-3-carboxamide] had a pIC50 of 6.60 to 7.30.

For the compound `CC(C)(O)COc1ccc2c(C(=O)N[C@H]3CC4(C3)C[C@H](Oc3ccccc3C(N)=O)C4)cnn2c1CCC(F)(F)F` (stereo partly drawn) [Example 19, N-[(aR)-6-(2-carbamoylphenoxy)spiro[3.3]heptan-2-yl]-6-(2-hydroxy-2-methylpropoxy)-7-(3,3,3-trifluoropropyl)pyrazolo [1,5-a]pyridine-3-carboxamide], the pIC50 was more than 8.30.

Consider `Cn1c(C(=O)N[C@H]2CC3(C2)C[C@H](Oc2ncccc2C(N)=O)C3)cc2ccc(Cl)cc21` (stereo partly drawn) [Example 154, N-((aR)-6-((3-carbamoylpyridin-2-yl)oxy)spiro[3.3]heptan-2-yl)-6-chloro-1-methyl-1H-indole-2-carboxamide], for which the pIC50 was 6.60 to 7.30.

Compound `NC(=O)c1cccnc1O[C@H]1CC2(C[C@H](NC(=O)c3cccc(Cn4ccnc4)c3)C2)C1` (stereo partly drawn) [Example 141, 2-(((aR)-6-(3-((1H-imidazol-1-yl)methyl)benzamido)spiro[3.3]heptan-2-yl)oxy) nicotinamide, trifluoroacetate] had a pIC50 of 5.60 to 6.60.

With `COc1ccc(C(N)=O)c(OC2CC3(CC(NC(=O)c4cnn5c(C6CC6)c(OCC(C)(C)O)ccc45)C3)C2)c1` (centres unmarked) [Example 211, N-(6-(2-carbamoyl-5-methoxyphenoxy)spiro[3.3]heptan-2-yl)-7-cyclopropyl-6-(2-hydroxy-2-methylpropoxy)pyrazolo[1,5-a]pyridine-3-carboxamide], the pIC50 was more than 8.30.

`[H][C@]1(Oc2ncccc2C(N)=O)C[C@@]2(C[C@H](NC(=O)c3cnn4c(CCC(F)(F)F)c(OCC(C)(C)O)ccc34)C2)C1` (stereo partly drawn) [Example 43, N-((aR)-6-((3-carbamoylpyridin-2-yl)oxy)spiro[3.3]heptan-2-yl)-6-(2-hydroxy-2-methylpropoxy)-7-(3,3,3-trifluoropropyl)pyrazolo[1,5-a]pyridine-3-carboxamide] showed a pIC50 of more than 8.30.

In turn, `[H][C@]1(Oc2ccccc2C(N)=O)C[C@@]2(C[C@H](NC(=O)c3cnn4cc(OCC(C)(C)O)ccc34)C2)C1` (stereo partly drawn) [Example 16, N-((aR)-6-(2-carbamoylphenoxy)spiro[3.3]heptan-2-yl)-6-(2-hydroxy-2-methylpropoxy)pyrazolo[1,5-a]pyridine-3-carboxamide] showed a negative logarithm of the IC50 (pIC50) of more than 8.30.

`CC(C)(O)COc1ccc2c(C(=O)NC3CC4(C3)CC(Oc3cc(-c5ccccn5)ccc3C(N)=O)C4)cnn2c1` (centres unmarked) [Example 237, N-(6-(2-carbamoyl-5-(pyridin-2-yl)phenoxy)spiro[3.3]heptan-2-yl)-6-(2-hydroxy-2-methylpropoxy)pyrazolo[1,5-a]pyridine-3-carboxamide] had a pIC50 of 7.30 to 8.30.

With `CC(C)(O)COc1ccc2c(C(=O)NC3CC4(C3)CC(Oc3ncncc3C(N)=O)C4)cnn2c1` (centres unmarked) [Example 8, N-(6-((5-carbamoylpyrimidin-4-yl)oxy)spiro[3.3]heptan-2-yl)-6-(2-hydroxy-2-methylpropoxy)pyrazolo[1,5-a]pyridine-3-carboxamide], the pIC50 was 6.60 to 7.30.

For `CCOC(=O)Cc1cccc(-c2ccc(C(N)=O)c(OC3CC4(CC(NC(=O)c5cnn6cc(OCC(C)(C)O)ccc56)C4)C3)c2)c1` (centres unmarked) [Example 282, ethyl 2-(4′-carbamoyl-3′-((6-(6-(2-hydroxy-2-methylpropoxy)pyrazolo[1,5-a]pyridine-3-carboxamido)spiro[3.3]heptan-2-yl)oxy)-[1,1′-biphenyl]-3-yl)acetate], the pIC50 was 7.30 to 8.30.

Staying with this assay, now noted: read-out: ROCK2 Activity (ROCK2 IC50); 5 μM ATP, 1.5 μM peptide substrate, pH 7.5.
As for “2-((aR)-6- (1-methyl-3- (trifluoromethyl)- 1H-pyrazole- 5-carboxamido) spiro[3.3]heptan- 2-yl)oxy) nicotinamide, trifluoroacetate [Example 86]”, the pIC50 was 6.60 to 7.30.
